# Measurements published in ChEMBL document CHEMBL2073889, “ATP-dependent transport of beta-estradiol 17-(beta-D-glucuronide) in rat canalicular membrane vesicles” (Am J Physiol, 1996).
# Target: Multidrug resistance protein 1a (Rattus norvegicus) (UniProt Q6PSM0)
# Assay: TP_TRANSPORTER: uptake, inhibited by C219 antibody in bile canalicular membrane vesicles from SD rat
# Assay type: functional, cell membranes
# Conditions: Sprague-Dawley, Bile canalicular membrane vesicle
# Chain of Multidrug resistance protein 1a (Rattus norvegicus) (Q6PSM0 as listed by the source): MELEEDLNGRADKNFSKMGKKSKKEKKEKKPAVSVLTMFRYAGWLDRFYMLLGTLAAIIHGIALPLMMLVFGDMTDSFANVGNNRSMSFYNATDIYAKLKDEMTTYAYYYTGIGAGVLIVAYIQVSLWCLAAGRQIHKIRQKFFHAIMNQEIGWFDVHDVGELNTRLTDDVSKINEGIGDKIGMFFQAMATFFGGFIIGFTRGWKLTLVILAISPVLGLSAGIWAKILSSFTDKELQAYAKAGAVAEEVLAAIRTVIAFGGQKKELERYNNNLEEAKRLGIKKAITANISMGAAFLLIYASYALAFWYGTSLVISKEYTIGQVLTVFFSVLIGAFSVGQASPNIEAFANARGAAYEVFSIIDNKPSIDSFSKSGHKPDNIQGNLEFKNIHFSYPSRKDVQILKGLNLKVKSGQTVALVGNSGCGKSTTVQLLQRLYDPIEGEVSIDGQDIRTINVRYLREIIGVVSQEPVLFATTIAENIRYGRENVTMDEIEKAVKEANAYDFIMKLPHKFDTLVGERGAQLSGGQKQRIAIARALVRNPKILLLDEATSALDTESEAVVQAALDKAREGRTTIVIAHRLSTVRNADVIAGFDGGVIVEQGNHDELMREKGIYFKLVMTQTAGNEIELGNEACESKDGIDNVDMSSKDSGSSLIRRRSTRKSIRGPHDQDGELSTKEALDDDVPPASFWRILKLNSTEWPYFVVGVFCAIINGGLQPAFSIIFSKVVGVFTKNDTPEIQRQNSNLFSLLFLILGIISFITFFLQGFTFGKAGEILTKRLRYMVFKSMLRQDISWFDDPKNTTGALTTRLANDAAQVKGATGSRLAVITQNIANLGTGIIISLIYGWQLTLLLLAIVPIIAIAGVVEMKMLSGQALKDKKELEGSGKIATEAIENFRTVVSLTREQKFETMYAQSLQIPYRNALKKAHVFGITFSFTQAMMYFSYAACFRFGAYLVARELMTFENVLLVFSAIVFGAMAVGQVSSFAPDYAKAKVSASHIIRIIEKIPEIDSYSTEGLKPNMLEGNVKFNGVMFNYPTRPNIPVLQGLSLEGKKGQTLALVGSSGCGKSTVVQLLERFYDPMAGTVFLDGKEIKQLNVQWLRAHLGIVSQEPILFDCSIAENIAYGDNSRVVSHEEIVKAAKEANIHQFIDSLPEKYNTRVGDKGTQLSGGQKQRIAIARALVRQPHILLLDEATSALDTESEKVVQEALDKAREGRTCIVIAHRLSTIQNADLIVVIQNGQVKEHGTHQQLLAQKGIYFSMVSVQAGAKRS
smiles,measurement,value
C[C@]12CC[C@@H]3c4ccc(O)cc4CC[C@H]3[C@@H]1CC[C@@H]2O[C@@H]1O[C@H](C(=O)O)[C@@H](O)[C@H](O)[C@H]1O,Activity,substrate [+]
